Experimental findings from patent US20030138773A1, “METHODS OF TRANSCRIPTIONALLY MODULATING GENE EXPRESSION” (priority 1989, published 2003) are described below.

The subject of assay [1] is mouse mammary tumor virus (MMTV) promoter. The assay can be described thus: MMTV promoter-luciferase reporter, cell clone M10 (high-throughput screen). The class given is cell-based. To be noted: for stimulation of the MMTV promoter in cell clone M10 by steroids: FIG. 43. The source says:
NIH/3T3 fibroblast cells (ATCC number CRL 1658) were used for transfection of plasmids containing the mouse mammary tumor virus (MMTV) promoter linked to firefly luciferase coding sequences (see below). Cells were propagated in Dulbecco's modified Eagle's medium (DMEM) obtained from Gibco, Grand Island, N.Y. and supplemented with 10% FCS. For high-throughput (HTP) screening, transfected NIH/3T3 clones were transferred to serum free defined medium consisting of Iscove's modified Eagle's medium (IMEM) and Ham's F12 medium (1:1) supplemented with growth factors, hormones and nutrients as described previously (43).
The firefly luciferase gene was removed from the plant expression plasmid pDO432 (33) (FIG. 1) as a 1.9 kb BamHI fragment and cloned into the BamHI site of pSVL (Pharmacia, Piscataway, N.J.), a mammalian expression vector containing the SV40 promoter. The resulting plasmid (pSVLuci; FIG. 2) was digested with XhoI and SalI to produce a 2.4 kb fragment containing the luciferase coding sequences and the SV40 late polyadenylation site. This fragment was inserted into the XhoI site of pMSG (Pharmacia, Piscataway, N.J.), a eukaryotic expression vector containing the MMTV promoter. The resulting MMTV promoter-luciferase fusion plasmid (pMLuci; FIG. 3) was used to transfect NIH/3T3 cells as described below (section El). Similar constructs can be made using luciferase vectors from Clontech (Palo Alto, Calif.).
pMluci (FIG. 3) and pSV2Neo, an antibiotic resistance plasmid (34), were co-transfected into NIH/3T3 mouse fibroblast cells using the calcium phosphate precipitation method (15) with a commercially available kit (Pharmacia, Piscataway N.J.). […] Once sufficient cell numbers were obtained, clones were analyzed based on several criteria: constitutive luciferase production, induction of luciferase expression by dexamethasone (1 μM, Sigma, St. Louis, Mo.), satisfactory attachment to microtiter plates used in the high-throughput screen (see section G) and acceptable standard deviation in multiple luciferase expression assays (see below for assay protocol). […]

Assay [2] concerns G-CSF mRNA. Put plainly: Northern blot of endogenous G-CSF mRNA in 5637 cells. The class given is cell-based, human. To be noted: G-CSF-specific probe, compared to solvent DMSO, FIG. 46. The procedure: Total cellular RNA was isolated from the G21 cell clone or from untransfected 5637 cells following incubation for 6 hours with various transcriptionally modulating chemicals identified in the high-throughput screen. Cells were grown in serum free medium as described above. Total cellular RNA was isolated using the RNAZol method (CINNA/BIOTECX, Friendswood, Tex., Laboratories International, Inc.). Cells were resuspended and lysed with RNAZol solution (1.5 ml/9 cm petri dish) and the RNA was solubilized by passing the lysate a few times through a pipette. Chloroform was added to the homogenate (0.1 ml/1 ml), and samples were shaken for 15 seconds followed by a 5 minute incubation on ice. After centrifuging for 10 minutes, the upper phase was collected and an equal volume of isopropanol was added. Samples were incubated for 45 minutes at −20° C., and the RNA was pelleted for 15 minutes at 12,000×g at 4° C. The RNA pellet was then washed with 70% ethanol and dried briefly under vacuum.
Total cellular RNA was isolated from 5637 cells following incubation with chemicals as described above and electrophoresed in a 1% Agarose-1M Formaldehyde gel. […] Bands were excised and counted in a liquid scintillation counter (LKB, Gaithersburg, Md.), and counts obtained with the G-CSF specific probe were normalized relative to the counts obtained with the B-Actin specific probe.

In assay [3] the test system is human G-CSF promoter. The assay can be described thus: G-CSF promoter-luciferase reporter, cell clone G21 (high-throughput screen). The class given is cell-based. To be noted: 5 μg/ml; FIG. 42. From the text: A human bladder carcinoma cell line (U5637, ATCC number HTB 9) was used for transfection of plasmids containing the human Granulocyte-Colony Stimulating Factor (G-CSF) promoter (see below) and was maintained in RPMI medium supplemented with 10% FCS. For HTP screening, transfected 5637 clones were transferred to a serum free defined medium identical to that used for the NIH/3T3 clones.
The sequences of OL-1, OL-2 and OL-5 recognize the G-CSF promoter region, OL-4 recognizes the first intron/exon junction and OL-3 recognizes sequences within the second exon (32). […]
(§1) To assay for luciferase expression in transient expression assays in the various transfected clones, cells were incubated with various transcriptional inducers in serum free defined media, washed 3 times with Dulbecco's phosphate-buffered saline (D-PBS, Gibco) and lysed in Lysis Buffer 1 (50 mM Tris acetate pH 7.9, 1 mM EGTA, 10 mM magnesium acetate, 1 mg/ml bovine serum albumin [BSA], 0.5% Brij 58, 2 mM ATP, 100 mM dithiothreitol [DTT]). […] Samples were counted individually in an LKB (Gaithersburg, Md.) scintillation counter on a setting which allows measurement of individual photons by switching off the coincidence circuit. […]
(A reporter such as luciferase makes a cellular process visible.)

The subject of assay [4] is human growth hormone promoter. Put plainly: hGH promoter-luciferase reporter, cell clone 532 (high-throughput screen). Format: cell-based. To be noted: 100 nM; FIG. 42.
Excerpt: A rat pituitary cell line, designated GC, (4, 25) was used for transfection of plasmids containing the human growth hormone promoter (see below) and was maintained in DMEM and Ham's F12 medium (1:1), supplemented with 12.5% FCS. For HTP screening, transfected GC clones were transferred to serum free defined medium consisting of DMEM and Ham's F12 medium (1:1) supplemented with growth factors, hormones and nutrients as described previously (17, 5).
The SalI-XhoI fragment of pSVLuci (FIG. 2) containing the luciferase coding sequences and the SV40 late polyadenylation site was inserted into pUC 8 (Biorad, Richmond, Calif.), which had been linearized by a SmaI/HinCII digestion and ligated to XhoI linkers (New England Biolabs, Beverly, Mass.). […]
as §1

Consider `C[C@]12CCC(=O)C=C1CC[C@@H]1[C@@H]2[C@@H](O)C[C@]2(C=O)[C@@H](C(=O)CO)CC[C@@H]12` [aldosterone], for which the “stimulation of the MMTV promoter in cell clone M10 by steroids” value in assay [1] is “stimulates”. As for `C[C@@H]1C[C@H]2[C@@H]3CCC4=CC(=O)C=C[C@]4(C)[C@@]3(F)[C@@H](O)C[C@]2(C)[C@@]1(O)C(=O)CO` [dexamethasone], the “stimulation of luciferase expression, clone M10” value in assay [1] (1 μM, FIG. 42) turned out to be 11.6 fold. Take `CC(=O)[C@H]1CC[C@H]2[C@@H]3CCC4=CC(=O)CC[C@]4(C)[C@H]3CC[C@]12C` [progesterone]: the “stimulation of the MMTV promoter in cell clone M10 by steroids” value in assay [1] was “did not”. In the case of “IFN-gamma: a proteinaceous positive regulator”, the “production of endogenous G-CSF mRNA” value in assay [2] is on record as “increased”. As to lipopolysaccharide, the “stimulation of luciferase expression, clone G21” value in assay [3] was determined as 5.7 fold. On to “rat growth hormone releasing factor: known inducer of hGH expression (Bachem) (HADAIFTSSYRRILGQLYARKLLHEIMNRQQGERNQEQRSRFN; Somatoliberin; UniProt P09916 31-73, looked up)”, for which the “stimulation of luciferase expression, clone 532” value in assay [4] turned out to be 2.2 fold.
